The results in this text go back to patent US20240032541A1, “HERBICIDAL COMPOUNDS” (SYNGENTA CROP PROTECTION AG, priority 2020, published 2024).

What all share (format): in vivo
Assay [1] concerns Amaranthus retoflexus (AMARE). The assay is described as follows: Pre-emergence herbicide glasshouse test. Particulars: pre-emergence (sprayed after one day cultivation), 250 g/ha, evaluated after 13 days. As to the method: (§1) Seeds of a variety of test species are sown in standard soil in pots Amaranthus retoflexus (AMARE), Echinochloa crus-galli (ECHCG), Setaria faberi (SETFA)). After cultivation for one day (pre-emergence) or after 8 days cultivation (post-emergence) under controlled conditions in a glasshouse (at 24/16° C., day/night; 14 hours light; 65% humidity), the plants are sprayed with an aqueous spray solution derived from the formulation of the technical active ingredient in acetone/water (50:50) solution containing 0.5% Tween 20 (polyoxyethelyene sorbitan monolaurate, CAS RN 9005-64-5). Compounds are applied at 250 g/ha unless otherwise stated. The test plants are then grown in a glasshouse under controlled conditions in a glasshouse (at 24/16° C., day/night; 14 hours light; 65% humidity) and watered twice daily. After 13 days for pre and post-emergence, the test is evaluated for the percentage damage caused to the plant. The biological activities are shown in the following table on a five-point scale (5=81-100%; 4=61-80%; 3=41-60%; 2=21-40%; 1=0-20%).

Assay [2] concerns Setaria faberi (SETFA). The assay is described as follows: Pre-emergence herbicide glasshouse test. Particulars: pre-emergence (sprayed after one day cultivation), 250 g/ha, evaluated after 13 days. As to the method: as §1
Assay [3] has as its system Echinochloa crus-galli (ECHCG). The assay is described as follows: Pre-emergence herbicide glasshouse test. Particulars: pre-emergence (sprayed after one day cultivation), 250 g/ha, evaluated after 13 days. As to the method:
as §1

In assay [4] the test system is Amaranthus retoflexus (AMARE). Nature of the assay: Post-emergence herbicide glasshouse test. Particulars: post-emergence (sprayed after 8 days cultivation), 250 g/ha, evaluated after 13 days. As to the method:
as §1

Assay [5] relates to Setaria faberi (SETFA). Nature of the assay: Post-emergence herbicide glasshouse test. Particulars: post-emergence (sprayed after 8 days cultivation), 250 g/ha, evaluated after 13 days. As to the method: as §1
The subject of assay [6] is Echinochloa crus-galli (ECHCG). Nature of the assay: Post-emergence herbicide glasshouse test. Particulars: post-emergence (sprayed after 8 days cultivation), 250 g/ha, evaluated after 13 days. As to the method: as §1

Regarding `FC(F)(F)CCCc1cc(C(F)(F)F)nc2cccc(Oc3ncc(Cl)cn3)c12` [Compound 1.015, 5-(5-chloropyrimidin-2-yl)oxy-4-(4,4,4-trifluorobutyl)-2-(trifluoromethyl)quinoline], the “percentage damage caused to the plant, five-point scale, AMARE” value (from here on “percentage damage caused … AMARE”) in assay [1] and in assay [4] was 5 (5=81-100%) throughout. The “percentage damage caused to the plant, five-point scale, SETFA” value (shortened to “percentage damage caused … SETFA”) in the assay with Setaria faberi (SETFA) [2] is 5 (5=81-100%); in the assay with Setaria faberi (SETFA) [5], 4 (4=61-80%). The “percentage damage caused to the plant, five-point scale, ECHCG” value (“percentage damage caused … ECHCG” below) in assay [3] is recorded as 5 (5=81-100%); in assay [6] it was 4 (4=61-80%).

As to `CCCCc1nc(C(F)(F)F)nc2cccc(Oc3ncc(Cl)cn3)c12` [Compound 1.005], the “percentage damage caused … AMARE” value in assay [1] and in assay [4] was 5 (5=81-100%) each time. Besides, the “percentage damage caused … SETFA” value with Setaria faberi (SETFA) [2] and with Setaria faberi (SETFA) [5] was 5 (5=81-100%) each time. Besides, the “percentage damage caused … ECHCG” value in assay [3] and in assay [6] was 5 (5=81-100%) in each case.

In the case of `COc1cnc(Oc2cccc3nc(C(F)(F)F)nc(CCCC(F)(F)F)c23)nc1` [Compound 1.026], the “percentage damage caused … AMARE” value is recorded as 2 (2=21-40%) in assay [1] and 4 (4=61-80%) in assay [4]. In addition, the “percentage damage caused … SETFA” value in the assay with Setaria faberi (SETFA) [2] and in the assay with Setaria faberi (SETFA) [5] was 4 (4=61-80%) throughout. The “percentage damage caused … ECHCG” value in assay [3] was 4 (4=61-80%); in assay [6], 3 (3=41-60%).

As for `FC(F)(F)CCCc1nc(C2CC2)nc2cccc(Oc3ncc(Cl)cn3)c12` [Compound 1.036], the “percentage damage caused … AMARE” value in assay [1] was 2 (2=21-40%); in assay [4], 4 (4=61-80%). The “percentage damage caused … SETFA” value is given as 5 (5=81-100%) in the assay on Setaria faberi (SETFA) [2] and 2 (2=21-40%) with Setaria faberi (SETFA) [5]. The “percentage damage caused … ECHCG” value in assay [3] was 4 (4=61-80%); in assay [6], 3 (3=41-60%).

Take `C=CCCc1nc(C(F)(F)F)nc2cccc(Oc3ncc(Cl)cn3)c12` [Compound 1.028, 4-but-3-enyl-5-(5-chloropyrimidin-2-yl) oxy-2 (trifluoromethyl)quinazoline]: the “percentage damage caused … AMARE” value in assay [1] is 4 (4=61-80%); in assay [4], 5 (5=81-100%). Besides, the “percentage damage caused … SETFA” value in the assay on Setaria faberi (SETFA) [2] is 5 (5=81-100%); in the assay with Setaria faberi (SETFA) [5], 4 (4=61-80%). The “percentage damage caused … ECHCG” value is listed as 5 (5=81-100%) in assay [3] and 4 (4=61-80%) in assay [6].

As for `Cc1ccc(Oc2ncc(Cl)cn2)c2c(CCCC(F)(F)F)nc(C(F)(F)F)nc12` [Compound 1.046, 5-(5-chloropyrimidin-2-yl)oxy-8-methyl-4-(4,4,4-trifluorobutyl)-2-(trifluoromethyl)quinazoline], the entries for the “percentage damage caused … AMARE” value in assay [1] and in assay [4] were 2 (2=21-40%) and 4 (4=61-80%), respectively. For the same molecule, the “percentage damage caused … SETFA” value in the assay on Setaria faberi (SETFA) [2] is 3 (3=41-60%); in the assay on Setaria faberi (SETFA) [5], 2 (2=21-40%). The entries for the “percentage damage caused … ECHCG” value in assay [3] and in assay [6] were 2 (2=21-40%) and 3 (3=41-60%), respectively.

With `FC(F)(F)CCCc1nc(C(F)(F)F)nc2cccc(Oc3ncc(Br)cn3)c12` [Compound 1.025], the “percentage damage caused … AMARE” value in assay [1] and in assay [4] was 4 (4=61-80%) throughout. The “percentage damage caused … SETFA” value is 5 (5=81-100%) in the assay on Setaria faberi (SETFA) [2] and 4 (4=61-80%) in the assay with Setaria faberi (SETFA) [5]. In addition, the “percentage damage caused … ECHCG” value in assay [3] and in assay [6] was 5 (5=81-100%) throughout.

Consider `Fc1cnc(Oc2cccc3nc(C(F)(F)F)nc(CCCC(F)(F)F)c23)nc1` [Compound 1.011], for which the “percentage damage caused … AMARE” value in assay [1] and in assay [4] was 5 (5=81-100%) in each case. Moreover, the “percentage damage caused … SETFA” value with Setaria faberi (SETFA) [2] and with Setaria faberi (SETFA) [5] was 5 (5=81-100%) in each case. Also, the “percentage damage caused … ECHCG” value in assay [3] and in assay [6] was 5 (5=81-100%) in each case.

Regarding `Cc1cnc(Oc2cccc3nc(C(F)(F)F)nc(CCCC(F)(F)F)c23)nc1` [Compound 1.020], the “percentage damage caused … AMARE” value is given as 5 (5=81-100%) in assay [1] and 4 (4=61-80%) in assay [4]. For the same molecule, the “percentage damage caused … SETFA” value in the assay with Setaria faberi (SETFA) [2] and in the assay on Setaria faberi (SETFA) [5] was 5 (5=81-100%) each time. Also, the “percentage damage caused … ECHCG” value in assay [3] and in assay [6] was 5 (5=81-100%) each time.

Regarding `Cc1nc(CCCC(F)(F)F)c2c(Oc3ncc(Cl)cn3)cccc2n1` [Compound 1.013, 5-(5-chloropyrimidin-2-yl)oxy-2-methyl-4-(4,4,4-trifluorobutyl)quinazoline], the “percentage damage caused … AMARE” value in assay [1] and in assay [4] was 3 (3=41-60%) each time. Further, the entries for the “percentage damage caused … SETFA” value in the assay with Setaria faberi (SETFA) [2] and in the assay with Setaria faberi (SETFA) [5] were 5 (5=81-100%) and 4 (4=61-80%), respectively. For the same molecule, the “percentage damage caused … ECHCG” value in assay [3] and in assay [6] was 4 (4=61-80%) each time.

For the molecule `FC(F)(F)CCCc1nccc2cccc(Oc3ncc(Cl)cn3)c12` [Compound 1.012, 8-(5-chloropyrimidin-2-yl)oxy-1-(4,4,4-trifluorobutyl)isoquinoline], the “percentage damage caused … AMARE” value in assay [1] and in assay [4] was 4 (4=61-80%) each time. In addition, the results for the “percentage damage caused … SETFA” value in the assay on Setaria faberi (SETFA) [2] and with Setaria faberi (SETFA) [5] were 5 (5=81-100%) and 4 (4=61-80%), respectively. Further, the entries for the “percentage damage caused … ECHCG” value in assay [3] and in assay [6] were 5 (5=81-100%) and 4 (4=61-80%), respectively.

Regarding `FC(F)(F)CCCc1cccc2cccc(Oc3ncc(Cl)cn3)c12` [Compound 1.002, 5-chloro-2-[[8-(4,4,4-trifluorobutyl)-1-naphthyl]oxy]pyrimidine], the “percentage damage caused … AMARE” value is given as 1 (1=0-20%) in assay [1] and 3 (3=41-60%) in assay [4]. Further, the “percentage damage caused … SETFA” value in the assay with Setaria faberi (SETFA) [2] was 1 (1=0-20%); in the assay with Setaria faberi (SETFA) [5], 3 (3=41-60%). Also, the “percentage damage caused … ECHCG” value in assay [3] is given as 1 (1=0-20%); in assay [6], 2 (2=21-40%).

Turning to `CC(C)c1nc(CCCC(F)(F)F)c2c(Oc3ncc(Cl)cn3)cccc2n1` [Compound 1.050, 5-(5-chloropyrimidin-2-yl)oxy-2-isopropyl-4-(4,4,4-trifluorobutyl)quinazoline], the “percentage damage caused … AMARE” value in assay [1] and in assay [4] was 5 (5=81-100%) throughout. Further, the entries for the “percentage damage caused … SETFA” value in the assay on Setaria faberi (SETFA) [2] and in the assay on Setaria faberi (SETFA) [5] were 5 (5=81-100%) and 3 (3=41-60%), respectively. For the same molecule, the results for the “percentage damage caused … ECHCG” value in assay [3] and in assay [6] were 5 (5=81-100%) and 2 (2=21-40%), respectively.
